Results on nine molecules are retold here after article PMC2635097 (Molecular pharmacology, 2008).

Where two headings read alike, the source gives them in different places. Positions of bridges follow the written chain, without caps; N, C: chain ends. No end group written: not given here.

One may read the EC50 as the concentration needed to bring the measured effect to its halfway point. One may read the IC50 as the midpoint of a concentration-inhibition curve. The logP is the decadic logarithm of the partition coefficient of the neutral form, usually between octanol and water. Read a high logP as a more lipophilic compound.

For data set [1], the system named is KCa2.3. The note with it: read-out: EC50 KCa2.3 currents; ref Hougaard et al., 2007; cited from earlier work.
Data set [2] relates to KCa2.2. The note with it: cited from earlier work.
Data set [3] has as its system KCa2.1. The note with it: ref Hougaard et al., 2007; cited from earlier work.
Data set [4] relates to cloned KCa3.1 channels. The note with it: cited from earlier work.
Data set [5] has as its target mKv3.1 (Mus musculus, UniProt P15388). Put plainly: Selectivity patch-clamp, Kv3.1 currents. In kind it is cell-based.
The target of data set [6] is Nav1.2 (Mus musculus, UniProt B1AWN6). The experiment in a line: Selectivity patch-clamp, Nav1.2 currents from N1E-115 cells. Type of data set: cell-based.
The target in data set [7] is hKCa2.1 (Homo sapiens, UniProt Q92952). Put plainly: Whole-cell patch-clamp of KCa2.1 currents. Type of data set: cell-based. On the technique in general: The patch-clamp technique gives a direct electrical read-out from membranes.
Chain of hKCa2.1 (Q92952 whole entry): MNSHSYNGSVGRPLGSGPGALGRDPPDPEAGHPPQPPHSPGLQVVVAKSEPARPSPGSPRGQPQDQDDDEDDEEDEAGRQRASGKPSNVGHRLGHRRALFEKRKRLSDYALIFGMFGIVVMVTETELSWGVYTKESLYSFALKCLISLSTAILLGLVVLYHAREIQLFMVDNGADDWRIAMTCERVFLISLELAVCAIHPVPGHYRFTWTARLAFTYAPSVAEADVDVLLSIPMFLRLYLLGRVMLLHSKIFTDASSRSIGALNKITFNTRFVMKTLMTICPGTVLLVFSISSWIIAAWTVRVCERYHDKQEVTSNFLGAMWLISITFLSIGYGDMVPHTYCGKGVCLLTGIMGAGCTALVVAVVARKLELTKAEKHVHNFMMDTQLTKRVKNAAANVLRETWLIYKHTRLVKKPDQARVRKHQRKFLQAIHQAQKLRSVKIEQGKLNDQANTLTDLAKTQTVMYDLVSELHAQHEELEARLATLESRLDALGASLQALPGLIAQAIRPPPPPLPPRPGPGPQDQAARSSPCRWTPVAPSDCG
Data set [8] has as its target mKv1.1 (Mus musculus, UniProt P16388). The experiment in a line: Selectivity patch-clamp, Kv1.1 currents. In kind it is cell-based.
Data set [9] addresses Rat Kv3.2 (Rattus norvegicus, UniProt P22462). The experiment in a line: Selectivity patch-clamp, Kv3.2 currents. Type of data set: cell-based.
Data set [10] addresses T1, rKv4.2 (Rattus norvegicus, UniProt Q63881).
T1 sequence (Q63881 1-630): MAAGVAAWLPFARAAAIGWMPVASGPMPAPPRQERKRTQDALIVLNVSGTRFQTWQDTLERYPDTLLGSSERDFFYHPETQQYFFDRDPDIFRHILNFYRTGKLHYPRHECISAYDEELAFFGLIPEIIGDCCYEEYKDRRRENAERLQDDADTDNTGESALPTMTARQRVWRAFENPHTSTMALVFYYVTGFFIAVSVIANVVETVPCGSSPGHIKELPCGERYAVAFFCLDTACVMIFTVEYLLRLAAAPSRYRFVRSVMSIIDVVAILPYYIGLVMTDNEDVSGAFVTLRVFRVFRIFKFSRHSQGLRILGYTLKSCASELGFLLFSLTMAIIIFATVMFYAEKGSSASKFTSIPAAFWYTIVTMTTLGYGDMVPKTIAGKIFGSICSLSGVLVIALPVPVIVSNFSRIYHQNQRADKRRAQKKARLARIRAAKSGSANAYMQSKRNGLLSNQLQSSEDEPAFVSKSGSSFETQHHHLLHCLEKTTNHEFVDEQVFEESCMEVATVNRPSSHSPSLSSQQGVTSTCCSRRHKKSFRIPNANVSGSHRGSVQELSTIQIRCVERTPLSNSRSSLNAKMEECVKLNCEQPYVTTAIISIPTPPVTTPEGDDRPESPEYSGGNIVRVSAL
Put plainly: Selectivity patch-clamp, Kv4.2 currents. In kind it is cell-based.

Data set [11] concerns the target rKCa2.2 (Rattus norvegicus, UniProt P70604). The experiment in a line: Whole-cell patch-clamp of KCa2.2 currents. Type of data set: cell-based.
The target in data set [12] is hKv1.5 (Homo sapiens, UniProt P22460). The experiment in a line: Selectivity patch-clamp, Kv1.5 currents. Type of data set: cell-based.
Data set [13] has as its target hKCa3.1 (Homo sapiens, UniProt O15554). The experiment in a line: Whole-cell patch-clamp of KCa3.1 currents. In kind it is cell-based.
Data set [14] concerns the target hKCa1.1 (Homo sapiens, UniProt Q12791). The experiment in a line: Selectivity patch-clamp, KCa1.1 currents. In kind it is cell-based. The note with it: 1 μM free Ca2+.
The target of data set [15] is T2, K2P2.1 (TREK-1) (Mus musculus, UniProt P97438).
T2 sequence (P97438 1-426): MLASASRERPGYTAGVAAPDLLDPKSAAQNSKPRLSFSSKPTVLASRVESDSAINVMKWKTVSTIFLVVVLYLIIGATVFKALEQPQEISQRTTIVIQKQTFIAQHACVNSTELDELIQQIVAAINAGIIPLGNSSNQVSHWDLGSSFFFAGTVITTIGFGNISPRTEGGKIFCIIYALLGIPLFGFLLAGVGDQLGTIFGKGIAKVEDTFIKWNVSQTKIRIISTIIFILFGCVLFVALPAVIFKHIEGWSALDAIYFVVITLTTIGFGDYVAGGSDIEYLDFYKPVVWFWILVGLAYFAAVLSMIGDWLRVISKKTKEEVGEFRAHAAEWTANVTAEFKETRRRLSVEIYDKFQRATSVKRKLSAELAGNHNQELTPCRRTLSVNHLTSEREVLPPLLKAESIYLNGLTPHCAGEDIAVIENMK
The experiment in a line: Selectivity patch-clamp, endothelial cell TREK-1 currents. Type of data set: cell-based.

The target of data set [16] is hKCa2.3 (Homo sapiens, UniProt Q9UGI6). Put plainly: Whole-cell patch-clamp of KCa2.3 currents. In kind it is cell-based.
Chain of hKCa2.3 (Q9UGI6 whole entry): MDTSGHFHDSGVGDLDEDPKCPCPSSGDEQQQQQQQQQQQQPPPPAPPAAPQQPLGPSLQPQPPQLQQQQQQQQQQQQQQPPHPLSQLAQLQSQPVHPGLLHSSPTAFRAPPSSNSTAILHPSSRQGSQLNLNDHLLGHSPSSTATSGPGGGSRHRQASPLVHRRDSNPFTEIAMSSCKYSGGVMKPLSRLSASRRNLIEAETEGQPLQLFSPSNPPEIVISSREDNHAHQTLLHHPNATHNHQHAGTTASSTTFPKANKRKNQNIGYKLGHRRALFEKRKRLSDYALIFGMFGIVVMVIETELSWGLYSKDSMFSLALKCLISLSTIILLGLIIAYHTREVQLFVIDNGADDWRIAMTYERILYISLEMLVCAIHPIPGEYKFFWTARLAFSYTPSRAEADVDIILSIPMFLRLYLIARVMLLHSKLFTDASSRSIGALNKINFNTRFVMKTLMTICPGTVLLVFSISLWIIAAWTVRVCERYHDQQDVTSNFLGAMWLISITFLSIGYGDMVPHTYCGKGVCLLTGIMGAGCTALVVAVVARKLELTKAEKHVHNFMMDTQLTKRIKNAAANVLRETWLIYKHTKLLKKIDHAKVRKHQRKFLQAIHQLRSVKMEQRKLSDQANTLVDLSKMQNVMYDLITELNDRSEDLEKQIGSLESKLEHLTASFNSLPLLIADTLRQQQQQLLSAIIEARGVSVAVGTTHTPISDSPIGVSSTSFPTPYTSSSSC
In data set [17] the target is hNav1.4 (Homo sapiens, UniProt P35499). The experiment in a line: Selectivity patch-clamp, Nav1.4 currents. In kind it is cell-based. The note with it: 10 μM.
Data set [18] can be described thus: logP. In kind it is physicochemical.
In data set [19] the target is Rat Nav1.5 (Rattus norvegicus, UniProt P15389). The experiment in a line: Selectivity patch-clamp, Nav1.5 currents. Type of data set: cell-based.
The subject of data set [20] is mice. Put plainly: Maximal electroshock. Conditions: 100 mg/kg i.p., 15 min, 30 min and 1 hour. Type of data set: in vivo, mouse. In general terms: In the maximal electroshock model the usual endpoint is tonic extension of the hind limbs.
Data set [21] relates to mice. Type of data set: in vivo, mouse. The note with it: 100 mg/kg i.p., 15 min, 30 min and 1 hour.
For data set [22], the system named is KCa2/3 channels. The note with it: ref Strøbæk et al., 2004; cited from earlier work.

Chain of hKCa3.1 (O15554 whole entry): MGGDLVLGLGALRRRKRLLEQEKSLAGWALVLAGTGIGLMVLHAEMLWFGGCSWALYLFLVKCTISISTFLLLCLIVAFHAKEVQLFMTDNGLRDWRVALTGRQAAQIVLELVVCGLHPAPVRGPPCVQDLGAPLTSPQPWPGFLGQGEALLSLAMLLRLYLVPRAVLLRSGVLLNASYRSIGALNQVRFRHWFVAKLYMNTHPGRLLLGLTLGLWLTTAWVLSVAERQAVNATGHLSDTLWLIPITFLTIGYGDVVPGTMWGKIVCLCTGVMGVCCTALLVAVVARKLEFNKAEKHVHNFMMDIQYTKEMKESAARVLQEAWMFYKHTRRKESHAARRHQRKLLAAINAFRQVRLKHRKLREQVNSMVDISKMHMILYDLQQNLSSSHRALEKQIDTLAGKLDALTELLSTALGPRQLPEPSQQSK
Chain of mKv1.1 (P16388 whole entry): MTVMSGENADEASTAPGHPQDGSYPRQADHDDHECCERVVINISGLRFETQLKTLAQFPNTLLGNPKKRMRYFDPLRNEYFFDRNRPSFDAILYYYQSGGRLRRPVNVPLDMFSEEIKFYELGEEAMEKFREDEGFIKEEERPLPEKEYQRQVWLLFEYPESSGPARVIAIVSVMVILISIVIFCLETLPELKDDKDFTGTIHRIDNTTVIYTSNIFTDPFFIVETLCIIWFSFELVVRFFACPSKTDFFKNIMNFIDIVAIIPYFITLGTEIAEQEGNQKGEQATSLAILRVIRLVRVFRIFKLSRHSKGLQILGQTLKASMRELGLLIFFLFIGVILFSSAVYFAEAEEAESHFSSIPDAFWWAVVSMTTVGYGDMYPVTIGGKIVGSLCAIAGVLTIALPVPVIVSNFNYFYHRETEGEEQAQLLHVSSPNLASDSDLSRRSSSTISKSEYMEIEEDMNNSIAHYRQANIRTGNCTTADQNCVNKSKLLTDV
Chain of mKv3.1 (P15388 whole entry): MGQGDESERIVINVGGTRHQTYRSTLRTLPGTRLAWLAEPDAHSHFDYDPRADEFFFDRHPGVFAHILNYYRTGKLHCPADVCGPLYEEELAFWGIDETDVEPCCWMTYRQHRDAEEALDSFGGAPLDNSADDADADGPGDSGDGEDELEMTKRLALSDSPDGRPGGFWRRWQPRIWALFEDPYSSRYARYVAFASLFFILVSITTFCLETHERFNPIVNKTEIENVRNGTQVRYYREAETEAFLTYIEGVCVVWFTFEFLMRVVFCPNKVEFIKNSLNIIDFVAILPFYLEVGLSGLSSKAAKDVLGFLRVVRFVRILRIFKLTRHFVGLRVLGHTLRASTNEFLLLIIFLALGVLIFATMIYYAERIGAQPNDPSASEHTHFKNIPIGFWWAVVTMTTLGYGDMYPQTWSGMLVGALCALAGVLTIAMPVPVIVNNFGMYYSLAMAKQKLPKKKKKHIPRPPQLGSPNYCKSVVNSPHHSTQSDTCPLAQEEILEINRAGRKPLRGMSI
Chain of hKCa1.1 (Q12791 whole entry): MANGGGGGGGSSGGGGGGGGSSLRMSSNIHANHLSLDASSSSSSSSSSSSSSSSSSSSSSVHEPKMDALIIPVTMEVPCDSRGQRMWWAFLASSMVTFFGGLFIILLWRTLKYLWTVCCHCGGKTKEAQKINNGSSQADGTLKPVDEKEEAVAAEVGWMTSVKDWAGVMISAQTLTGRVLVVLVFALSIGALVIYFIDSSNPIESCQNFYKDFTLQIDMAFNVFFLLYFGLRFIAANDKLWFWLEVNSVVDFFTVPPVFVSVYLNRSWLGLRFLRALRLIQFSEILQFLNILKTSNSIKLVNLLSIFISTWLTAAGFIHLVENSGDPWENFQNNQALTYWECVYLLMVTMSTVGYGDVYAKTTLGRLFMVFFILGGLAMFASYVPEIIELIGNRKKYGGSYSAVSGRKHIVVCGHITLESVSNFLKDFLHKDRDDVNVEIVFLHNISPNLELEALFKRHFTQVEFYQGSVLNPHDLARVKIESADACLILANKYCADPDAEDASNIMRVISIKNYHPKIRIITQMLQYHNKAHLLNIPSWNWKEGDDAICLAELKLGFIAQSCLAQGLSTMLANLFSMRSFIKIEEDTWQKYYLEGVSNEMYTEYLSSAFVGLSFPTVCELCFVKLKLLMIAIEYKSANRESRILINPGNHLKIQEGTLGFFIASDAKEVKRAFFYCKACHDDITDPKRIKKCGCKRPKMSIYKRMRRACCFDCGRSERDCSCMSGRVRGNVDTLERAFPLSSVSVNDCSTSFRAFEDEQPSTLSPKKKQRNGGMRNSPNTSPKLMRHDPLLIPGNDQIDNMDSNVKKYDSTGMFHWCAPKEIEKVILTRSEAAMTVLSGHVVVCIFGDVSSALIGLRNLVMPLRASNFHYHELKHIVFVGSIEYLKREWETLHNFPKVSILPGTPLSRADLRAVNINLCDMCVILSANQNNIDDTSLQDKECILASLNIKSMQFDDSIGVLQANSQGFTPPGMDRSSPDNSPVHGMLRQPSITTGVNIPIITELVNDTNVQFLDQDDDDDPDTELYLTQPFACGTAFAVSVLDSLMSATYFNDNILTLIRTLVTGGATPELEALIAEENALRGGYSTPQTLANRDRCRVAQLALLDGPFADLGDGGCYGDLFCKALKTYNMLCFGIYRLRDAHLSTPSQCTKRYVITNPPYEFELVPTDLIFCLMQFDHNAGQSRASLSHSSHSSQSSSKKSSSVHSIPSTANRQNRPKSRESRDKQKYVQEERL
Chain of Rat Kv3.2 (P22462 whole entry): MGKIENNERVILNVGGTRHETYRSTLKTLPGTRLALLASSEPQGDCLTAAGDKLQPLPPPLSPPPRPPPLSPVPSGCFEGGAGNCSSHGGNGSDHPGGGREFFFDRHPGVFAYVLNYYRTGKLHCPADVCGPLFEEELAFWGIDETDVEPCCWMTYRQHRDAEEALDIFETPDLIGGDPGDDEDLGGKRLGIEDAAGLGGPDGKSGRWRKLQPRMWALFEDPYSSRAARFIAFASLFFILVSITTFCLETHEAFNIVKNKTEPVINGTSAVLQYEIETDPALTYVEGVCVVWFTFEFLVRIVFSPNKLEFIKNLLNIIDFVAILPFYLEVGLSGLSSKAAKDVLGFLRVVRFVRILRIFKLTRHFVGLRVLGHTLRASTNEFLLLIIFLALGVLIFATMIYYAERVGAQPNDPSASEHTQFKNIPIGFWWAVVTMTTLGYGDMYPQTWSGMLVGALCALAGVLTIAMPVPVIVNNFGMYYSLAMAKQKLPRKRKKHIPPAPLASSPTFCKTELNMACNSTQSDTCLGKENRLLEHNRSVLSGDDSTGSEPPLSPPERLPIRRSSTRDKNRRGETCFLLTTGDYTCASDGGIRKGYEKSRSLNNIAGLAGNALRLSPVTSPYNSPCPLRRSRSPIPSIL

In the case of `Cc1cc(NC2CCCCC2)nc(-n2nc(C)cc2C)n1` [CyPPA], the EC50 is 6 µM in data set [1] and 14 µM in [2] (read-out: EC50 KCa2.2 currents, ref Hougaard et al., 2007). Further, the “effect on KCa2.1” value in data set [3] is “no effect”. The “effect on KCa3.1” value in data set [4] (ref Hougaard et al., 2007) is given as “no effect”.
Consider `Nc1nc2ccc(OC(F)(F)F)cc2s1` [Riluzole, 2-amino-6-[trifluoromethoxy]benzothiazole, reference compound], for which the IC50 turned out to be 95 ± 5 µM in data set [5]; 15 ± 3 µM in [6]; 92 ± 7 µM in data set [8]; 100 ± 10 µM in [9]; 130 ± 10 µM in data set [10]; 95 ± 5 µM in [12]. Further, the EC50 in data set [7] came to 21 µM; in data set [11], 12.8 µM; in data set [13], 1.9 µM; in [15], 110 ± 35 µM. The “increase of KCa3.1 currents” value was approximately 30 fold in data set [13] (250 nM [Ca2+]i) and “roughly 3 fold” in data set [13] (1 μM [Ca2+]i). In data set [14] (100 μM), the “effect on KCa1.1 current at 100 μM” value was “Doubles current at 100 μM”.
`Cl.c1ccc2c(c1)CCC[C@H]2Nc1nc2ccccc2[nH]1` [NS8593, N-[(1R)-1,2,3,4-tetrahydro-1-naphthalenyl]-1H-benzimidazol-2-amine hydrochloride]: the IC50 in [16] (read-out: IC50 inhibition of KCa2.3 currents, absence of SKA-31) was 0.7 µM. Also, the “shift of IC50 on KCa2.3 by SKA-31” value in [16] (with versus without SKA-31) is recorded as “roughly 10 fold”.
In the case of `CCn1c(=O)[nH]c2ccccc21` [EBIO, 1-ethylbenzimidazolin-2-one], the concentration for a half-maximal effect (EC50) in [4] (read-out: EC50 cloned KCa3.1 channels, ref Wulff et al., 2007) is 30 µM.
`Nc1nc2ccc3cc4ccccc4cc3c2s1` [SKA-20, Anthra[2,1-d]thiazol-2-ylamine]: the “Kv3.1 block at 10 μM” value in data set [5] (10 μM) came to 35 ± 3% block at 10 μM. In addition, 14 ± 2 µM corresponded to half-maximal inhibition in data set [6] (IC50). For the same molecule, the concentration giving a half-maximal response (EC50) in data set [7] amounted to 0.43 µM; in data set [11], 1.9 µM; in data set [13], 0.115 µM; in [16] (read-out: EC50 KCa2.3 activation, 250 nM [Ca2+]i) it was 1.2 µM. Also, in [8] (10 μM), the “Kv1.1 block at 10 μM” value is reported as 12 ± 3%block at 10 μM. In [17], the “Nav1.4 block at 10 μM” value is given as “No effect at 10 μM”. In addition, the “Kv3.2 block at 10 μM” value in data set [9] (10 μM) is 12 ± 5% block at 10 μM. In [18], this molecule registered a logP of 3.1. Moreover, the “Kv4.2 block at 10 μM” value in data set [10] (10 μM) was 10 ± 3% block at 10 μM. In [19], the “Nav1.5 block at 10 μM” value amounted to 30 ± 5% block at 10 μM. The “effect on KCa1.1 current at 10 μM” value in data set [14] (10 μM) was “No effect at 10 μM”. In addition, in [15] (10 μM), the “K2P2.1 (TREK-1) effect at 10 μM” value is “No effect at 10 μM”.
In the case of `CCn1c(=O)[nH]c2cc(Cl)c(Cl)cc21` [DCEBIO, 5,6-dichloro-EBIO], the EC50 in data set [2] (read-out: EC50 KCa2.2, ref Pedarzani et al., 2001) was 27 µM; in [4] (read-out: EC50 KCa3.1, ref Singh et al., 2001), 0.75 µM.
With `Nc1nc2cc3c(cc2s1)CCC3` [SKA-29, 6,7-Dihydro-5H-indeno[5,6-d]thiazol-2-amine], the “protection from seizures, maximal electroshock (MES) model” value in data set [20] was “effectively protect mice from seizures”. Also, in data set [21], the “protection from seizures, 6 Hz minimal electroshock model” value is given as “effectively protect mice from seizures”.
For the molecule `O=C1Nc2c(ccc(Cl)c2Cl)C1=NO` [NS309, 6,7-dichloro-1H-indole-2,3-dione 3-oxime], the “concentrations activating KCa2 and KCa3.1 channels” value in data set [22] is “submicromolar concentrations”.
Turning to “apamin (CNCKAPETALCARRCQQH-NH2; disulfide 1-11, 3-15; ends not checked; UniProt P01500 28-45, looked up)”, the IC50 in data set [16] (read-out: IC50 blockade of hKCa2.3 currents, currents activated with 10 μM SKA-31, 250 nM free Ca2+) is approximately 0.001 µM.
